Earlier results on 2 compounds are cited in US20240366596A1, “TREATMENT OF HFPEF IN POST-MENOPAUSAL WOMEN WITH AN SGC STIMULATOR” (Cyclerion Therapeutics, Inc., priority 2021, published 2024).

The test system of series [1] is patients with chronic HF with HFpEF. As to conditions: top-line results; cited from earlier work.
Series [2] concerns subjects with symptomatic HF and an LVEF≥45%. The conditions noted are these: women, spironolactone vs placebo, subjects from the Americas; cited from earlier work.

For the compound `OC[C@H]1O[C@@H](c2ccc(Cl)c(Cc3ccc(O[C@H]4CCOC4)cc3)c2)[C@H](O)[C@@H](O)[C@@H]1O` [empagliflozin], in series [1], the “risk for the composite of cardiovascular death or hospitalization for HF compared with placebo” value is reported as “significantly reduced risk”. Turning to `CC(=O)S[C@@H]1CC2=CC(=O)CC[C@]2(C)[C@H]2CC[C@@]3(C)[C@@H](CC[C@@]34CCC(=O)O4)[C@H]12` [spironolactone], the “all-cause mortality HR” value in series [2] is on record as 0.66.
